Data: PubChem BioAssay AID2060496 (Molecular Pharmacology Branch, DTP, NCI, 2025)
pIC50: −log10 of the molar value.

Test system: 276233-004-R-J1-PDC complex spheroid viability
Test: Anticancer human tumor 276233-004-R-J1-PDC patient-derived colon adenocarcinoma cell line growth inhibition [GQUAD]
Conditions: for pIC50: curve of first compound; for viability, T/C: stronger effect = lower value
Procedure, shortened: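 Multi-cell-type spheroids of tumor cells with HUVEC and mesenchymal stem cells, treated with drug combinations. Concentrations descend in half-log steps from near clinical Cmax, or from 10 microM where Cmax is unknown; viability read-out.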

[1] = second compound 0.0316 µM, first compound 0.0316 µM
[2] = second compound 0.0316 µM, first compound 0.316 µM
[3] = second compound 0.1 µM, first compound 0.0316 µM
[4] = second compound 0.1 µM, first compound 0.316 µM
[5] = second compound 0.316 µM, first compound 0.0316 µM
[6] = second compound 0.316 µM, first compound 0.316 µM
[7] = second compound 1 µM, first compound 0.0316 µM
[8] = second compound 1 µM, first compound 0.316 µM
[9] = second compound 3.16 µM, first compound 0.0316 µM
[10] = second compound 3.16 µM, first compound 0.316 µM
[11] = second compound 10 µM, first compound 0.0316 µM
[12] = second compound 10 µM, first compound 0.316 µM
[13] = second compound 0.0316 µM, first compound 0.1 µM
[14] = second compound 0.0316 µM, first compound 1 µM
[15] = second compound 0.0316 µM, first compound 3.16 µM
[16] = second compound 0.0316 µM, first compound 10 µM
[17] = second compound 0.1 µM, first compound 0.1 µM
[18] = second compound 0.1 µM, first compound 1 µM
[19] = second compound 0.1 µM, first compound 3.16 µM
[20] = second compound 0.1 µM, first compound 10 µM
[21] = second compound 0.316 µM, first compound 0.1 µM
[22] = second compound 0.316 µM, first compound 1 µM
[23] = second compound 0.316 µM, first compound 3.16 µM
[24] = second compound 0.316 µM, first compound 10 µM
[25] = second compound 1 µM, first compound 0.1 µM
[26] = second compound 1 µM, first compound 1 µM
[27] = second compound 1 µM, first compound 3.16 µM
[28] = second compound 1 µM, first compound 10 µM
[29] = second compound 3.16 µM, first compound 0.1 µM
[30] = second compound 3.16 µM, first compound 1 µM
[31] = second compound 3.16 µM, first compound 3.16 µM
[32] = second compound 3.16 µM, first compound 10 µM
[33] = second compound 10 µM, first compound 0.1 µM
[34] = second compound 10 µM, first compound 1 µM
[35] = second compound 10 µM, first compound 3.16 µM
[36] = second compound 10 µM, first compound 10 µM
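Further: spheroids exposed to drugs for seven days.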
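Wherever viability, T/C is given: 100% = DMSO vehicle control viability.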

With `CCc1c2c(nc3ccc(O)cc13)-c1cc3c(c(=O)n1C2)COC(=O)[C@]3(O)CC` + Cc1cnc(CNC(=O)c2c(=O)c3ccc(N4CCCN(C)CC4)nc3n3c2sc2ccccc23)cn1 the pIC50 (second compound 0.0316 µM) was less than 6.50, the pIC50 (second compound 0.1 µM) was less than 6.50 and the pIC50 (second compound 0.316 µM) was less than 6.50. It also gave a pIC50 (second compound 1 µM) of less than 6.50, a pIC50 (second compound 3.16 µM) of less than 6.50 and a pIC50 (second compound 10 µM) of less than 6.50. The viability, T/C (second compound 0.0316 µM, first compound 0.000999 µM) was 96.8%, the viability, T/C (second compound 0.0316 µM, first compound 0.00316 µM) was 92.2% and the viability, T/C (second compound 0.0316 µM, first compound 0.00999 µM) was 90.9%. It also gave a viability, T/C [1] of 90%, a viability, T/C (second compound 0.0316 µM, first compound 0.0999 µM) of 99.4% and a viability, T/C [2] of 103%. It also gave a viability, T/C (second compound 0.1 µM, first compound 0.000999 µM) of 97.9%, a viability, T/C (second compound 0.1 µM, first compound 0.00316 µM) of 90.4% and a viability, T/C (second compound 0.1 µM, first compound 0.00999 µM) of 90.6%. The viability, T/C [3] was 110%, the viability, T/C (second compound 0.1 µM, first compound 0.0999 µM) was 94.2% and the viability, T/C [4] was 89.2%. The viability, T/C (second compound 0.316 µM, first compound 0.000999 µM) was 91.6%, the viability, T/C (second compound 0.316 µM, first compound 0.00316 µM) was 103% and the viability, T/C (second compound 0.316 µM, first compound 0.00999 µM) was 105%. For the same molecule, the viability, T/C [5] was 84.8%, the viability, T/C (second compound 0.316 µM, first compound 0.0999 µM) was 85.8% and the viability, T/C [6] was 79.4%. The viability, T/C (second compound 1 µM, first compound 0.000999 µM) was 85.4%, the viability, T/C (second compound 1 µM, first compound 0.00316 µM) was 74.7% and the viability, T/C (second compound 1 µM, first compound 0.00999 µM) was 84.7%. For the same molecule, the viability, T/C [7] was 77%, the viability, T/C (second compound 1 µM, first compound 0.0999 µM) was 83.2% and the viability, T/C [8] was 76.2%. The viability, T/C (second compound 3.16 µM, first compound 0.000999 µM) was 81.6%, the viability, T/C (second compound 3.16 µM, first compound 0.00316 µM) was 96.1% and the viability, T/C (second compound 3.16 µM, first compound 0.00999 µM) was 80.2%. For the same molecule, the viability, T/C [9] was 67.4%, the viability, T/C (second compound 3.16 µM, first compound 0.0999 µM) was 85.1% and the viability, T/C [10] was 71.5%. It also gave a viability, T/C (second compound 10 µM, first compound 0.000999 µM) of 72.4%, a viability, T/C (second compound 10 µM, first compound 0.00316 µM) of 88.4% and a viability, T/C (second compound 10 µM, first compound 0.00999 µM) of 75.5%. The viability, T/C [11] was 65.5%, the viability, T/C (second compound 10 µM, first compound 0.0999 µM) was 77.8% and the viability, T/C [12] was 62%.
For `Nc1ccn(C2OC(CO)C(O)C2(F)F)c(=O)n1` (stereo unspecified) + Cc1cnc(CNC(=O)c2c(=O)c3ccc(N4CCCN(C)CC4)nc3n3c2sc2ccccc23)cn1, the pIC50 (second compound 0.0316 µM) was less than 5.00, the pIC50 (second compound 0.1 µM) was less than 5.00 and the pIC50 (second compound 0.316 µM) was less than 5.00. For the same molecule, the pIC50 (second compound 1 µM) was less than 5.00, the pIC50 (second compound 3.16 µM) was less than 5.00 and the pIC50 (second compound 10 µM) was less than 5.00. It also gave a viability, T/C [1] of 82.7%, a viability, T/C [13] of 77.7% and a viability, T/C [2] of 83.8%. The viability, T/C [14] was 81.1%, the viability, T/C [15] was 88.4% and the viability, T/C [16] was 72.6%. It also gave a viability, T/C [3] of 89.8%, a viability, T/C [17] of 87.9% and a viability, T/C [4] of 80.7%. For the same molecule, the viability, T/C [18] was 93.3%, the viability, T/C [19] was 84.4% and the viability, T/C [20] was 79.9%. The viability, T/C [5] was 80%, the viability, T/C [21] was 97.9% and the viability, T/C [6] was 86.6%. The viability, T/C [22] was 80.4%, the viability, T/C [23] was 77% and the viability, T/C [24] was 76.7%. The viability, T/C [7] was 94.2%, the viability, T/C [25] was 78.8% and the viability, T/C [8] was 105%. The viability, T/C [26] was 83.8%, the viability, T/C [27] was 82.5% and the viability, T/C [28] was 79.9%. It also gave a viability, T/C [9] of 80%, a viability, T/C [29] of 68% and a viability, T/C [10] of 91.8%. It also gave a viability, T/C [30] of 73.2%, a viability, T/C [31] of 66.3% and a viability, T/C [32] of 62.3%. For the same molecule, the viability, T/C [11] was 65.8%, the viability, T/C [33] was 75.2% and the viability, T/C [12] was 69.5%. For the same molecule, the viability, T/C [34] was 78.2%, the viability, T/C [35] was 65.2% and the viability, T/C [36] was 57.5%.
In the case of `O=c1[nH]cc(F)c(=O)[nH]1` + Cc1cnc(CNC(=O)c2c(=O)c3ccc(N4CCCN(C)CC4)nc3n3c2sc2ccccc23)cn1, the pIC50 (second compound 0.0316 µM) was less than 5.00, the pIC50 (second compound 0.1 µM) was less than 5.00 and the pIC50 (second compound 0.316 µM) was less than 5.00. The pIC50 (second compound 1 µM) was less than 5.00, the pIC50 (second compound 3.16 µM) was less than 5.00 and the pIC50 (second compound 10 µM) was less than 5.00. For the same molecule, the viability, T/C [1] was 86.8%, the viability, T/C [13] was 82.2% and the viability, T/C [2] was 90.7%. For the same molecule, the viability, T/C [14] was 81.2%, the viability, T/C [15] was 98.8% and the viability, T/C [16] was 97.5%. The viability, T/C [3] was 97.1%, the viability, T/C [17] was 96.5% and the viability, T/C [4] was 89.1%. For the same molecule, the viability, T/C [18] was 89.7%, the viability, T/C [19] was 95.1% and the viability, T/C [20] was 102%. For the same molecule, the viability, T/C [5] was 87.4%, the viability, T/C [21] was 99.8% and the viability, T/C [6] was 99.1%. It also gave a viability, T/C [22] of 85.6%, a viability, T/C [23] of 98.6% and a viability, T/C [24] of 99.1%. For the same molecule, the viability, T/C [7] was 78.2%, the viability, T/C [25] was 87.6% and the viability, T/C [8] was 80.4%. It also gave a viability, T/C [26] of 90%, a viability, T/C [27] of 92.7% and a viability, T/C [28] of 94.4%. It also gave a viability, T/C [9] of 82.7%, a viability, T/C [29] of 74.9% and a viability, T/C [10] of 79.2%. It also gave a viability, T/C [30] of 82.8%, a viability, T/C [31] of 83.7% and a viability, T/C [32] of 82.2%. For the same molecule, the viability, T/C [11] was 69.8%, the viability, T/C [33] was 79.3% and the viability, T/C [12] was 80.5%. The viability, T/C [34] was 86.2%, the viability, T/C [35] was 61.8% and the viability, T/C [36] was 79.6%.
